Source: patent US20260070899A1, “N-(2-(4-CYANOTHIAZOLIDIN-3-YL)-2-OXOETHYL)-QUINOLINE-4-CARBOXAMIDES” (AstraZeneca AB, priority 2022, published 2026)
≈ marks a conversion by molar mass, not a printed value.

Tests used:
Rat Hepatocytes (rHep) = assay: Metabolic stability in rat hepatocytes (rHep); assay type: in vitro ADME; conditions: n = 1 or geometric mean (n = 2-3)
Experimental: Metabolic stability in rat hepatocytes was measured as described in J Comput Aided Mol Des 2015, 29, 795.

[1] = molecular target: T1, Prolyl endopeptidase, Prolyl Oligopeptidase (hPREP) (Homo sapiens, UniProt P48147); assay: biochemical
T1 sequence (P48147 1-710): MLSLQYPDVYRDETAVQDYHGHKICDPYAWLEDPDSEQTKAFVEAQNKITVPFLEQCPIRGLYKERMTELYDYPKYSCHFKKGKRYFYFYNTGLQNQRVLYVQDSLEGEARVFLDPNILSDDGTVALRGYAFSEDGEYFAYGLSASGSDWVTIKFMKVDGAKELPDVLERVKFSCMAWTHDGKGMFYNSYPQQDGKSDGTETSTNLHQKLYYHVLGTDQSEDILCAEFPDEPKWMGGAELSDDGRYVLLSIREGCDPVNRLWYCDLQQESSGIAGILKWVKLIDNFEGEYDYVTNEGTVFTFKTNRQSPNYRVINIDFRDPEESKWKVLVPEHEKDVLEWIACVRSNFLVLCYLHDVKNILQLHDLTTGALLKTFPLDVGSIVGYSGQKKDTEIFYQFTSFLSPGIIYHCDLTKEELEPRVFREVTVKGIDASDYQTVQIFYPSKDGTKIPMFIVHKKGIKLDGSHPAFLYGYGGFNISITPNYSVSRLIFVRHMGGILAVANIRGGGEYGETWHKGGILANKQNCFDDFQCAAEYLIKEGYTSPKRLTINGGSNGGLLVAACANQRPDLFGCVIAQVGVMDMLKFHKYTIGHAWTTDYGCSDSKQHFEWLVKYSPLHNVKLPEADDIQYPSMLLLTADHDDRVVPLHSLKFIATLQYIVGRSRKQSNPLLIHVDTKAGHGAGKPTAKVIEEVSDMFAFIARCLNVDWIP

hFAP = molecular target: T2, hFAP (Homo sapiens, UniProt Q12884); assay: biochemical
T2 sequence (Q12884 38-760): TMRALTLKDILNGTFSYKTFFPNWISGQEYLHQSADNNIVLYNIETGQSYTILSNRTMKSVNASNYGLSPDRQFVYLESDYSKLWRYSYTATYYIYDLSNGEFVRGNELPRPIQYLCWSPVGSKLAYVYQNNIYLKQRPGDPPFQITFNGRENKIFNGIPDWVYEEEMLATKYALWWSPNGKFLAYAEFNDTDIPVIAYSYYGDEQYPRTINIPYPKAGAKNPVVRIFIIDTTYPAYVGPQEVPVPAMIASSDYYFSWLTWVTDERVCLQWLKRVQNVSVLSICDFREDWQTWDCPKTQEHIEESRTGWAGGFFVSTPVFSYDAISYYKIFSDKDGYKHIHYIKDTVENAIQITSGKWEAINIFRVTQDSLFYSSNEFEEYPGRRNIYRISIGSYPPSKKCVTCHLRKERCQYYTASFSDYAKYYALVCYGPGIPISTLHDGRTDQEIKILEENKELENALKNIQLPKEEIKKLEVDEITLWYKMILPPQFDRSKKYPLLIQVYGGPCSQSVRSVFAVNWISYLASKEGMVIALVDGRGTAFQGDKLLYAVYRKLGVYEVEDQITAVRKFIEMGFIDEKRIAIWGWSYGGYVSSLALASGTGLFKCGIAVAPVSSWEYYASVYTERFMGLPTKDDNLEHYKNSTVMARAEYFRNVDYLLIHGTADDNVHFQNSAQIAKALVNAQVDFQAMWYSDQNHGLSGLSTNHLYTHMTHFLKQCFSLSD

Kinetic solubility = assay type: physicochemical; conditions: kinetic from dmso stock, n = 1 or average (n = 2-4)
Experimental: Kinetic solubility was measured as described in Comput Aided Mol Des 2015, 29, 795.

hFAP (M39-A757) = molecular target: T3, hFAP (M39-A757) (Homo sapiens, UniProt Q12884); assay: biochemical
T3 sequence (Q12884 39-757): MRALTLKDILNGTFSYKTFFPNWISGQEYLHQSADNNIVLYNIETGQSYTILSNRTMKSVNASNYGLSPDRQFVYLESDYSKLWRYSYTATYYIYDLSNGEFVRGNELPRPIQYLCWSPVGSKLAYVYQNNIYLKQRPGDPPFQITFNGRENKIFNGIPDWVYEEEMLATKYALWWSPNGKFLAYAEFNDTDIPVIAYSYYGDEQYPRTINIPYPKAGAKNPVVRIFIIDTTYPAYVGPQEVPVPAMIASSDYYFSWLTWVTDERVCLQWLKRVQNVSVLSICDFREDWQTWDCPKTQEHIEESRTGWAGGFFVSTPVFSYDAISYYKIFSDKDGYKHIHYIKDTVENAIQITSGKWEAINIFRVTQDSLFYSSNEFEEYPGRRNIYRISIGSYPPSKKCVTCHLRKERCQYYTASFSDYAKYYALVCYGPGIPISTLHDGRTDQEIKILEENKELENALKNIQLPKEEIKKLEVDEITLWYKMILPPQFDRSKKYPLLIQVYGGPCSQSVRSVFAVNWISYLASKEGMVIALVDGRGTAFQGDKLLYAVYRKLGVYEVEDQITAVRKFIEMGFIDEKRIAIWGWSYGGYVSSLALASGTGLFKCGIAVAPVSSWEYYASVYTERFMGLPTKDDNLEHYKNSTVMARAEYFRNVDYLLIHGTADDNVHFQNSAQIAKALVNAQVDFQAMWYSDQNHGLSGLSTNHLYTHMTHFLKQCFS
Experimental: Compounds were tested in a direct binding assay using 8K surface plasmon resonance biosensor (GE Healthcare) at 20° C. Immobilization of hFAP (M39-A757) on a CMD200M sensor chip (Xantec) was performed using standard amine coupling procedure in immobilization buffer (10 mM HEPES, 150 mM NaCl, 0.05% Tween20, pH 7.4). The surface was washed with 10 mM aq NaOH, 1M NaCl before being activated with EDC/NHS (GE Healthcare), followed by immobilization of hFAP (in 10 mM Acetate pH 5.0). Finally, the surface was deactivated by ethanolamine. Immobilization levels of hFAP were around 4000-6000 RU. The reference spot was treated as described, omitting the injection of hFAP. Compound concentration series were injected over the immobilized protein in increasing concentrations (2-500 nM) using single cycle kinetics in running buffer (20 mM TRIS, 150 mM NaCl, 0.05% Tween20, 1% DMSO, pH 7.4). Interaction models were fitted globally to the experimental traces, enabling determination of kon, koff and Kd.

[2] = Metabolic stability in human liver microsomes (HLM); assay type: in vitro ADME; conditions: n = 1 or average (n = 2-3)
Experimental: Metabolic stability in HLM was measured as described in J Comput Aided Mol Des 2015, 29, 795.

[3] = Caco-2 bidirectional (ABBA) permeability; assay type: in vitro ADME; conditions: human
Experimental: Caco-2 cell permeability was measured as described in Mol Pharm 2017, 14, 1601.
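Wherever Kd is given: surface plasmon resonance direct binding to hFAP amine-coupled on a sensor chip, rising compound concentrations by single cycle kinetics, Kd from global fit of interaction models.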

Structure (SMILES) | rHeps CLint (Rat Hepatocytes (rHep)) | IC50 [1] | IC50 (hFAP) | solubility (Kinetic solubility) | Kd (hFAP (M39-A757)) | microsomal CLint [2] | Papp A→B ([3]; A to B, n = 1 or average (n = 2), read-out: Caco2 Bidirectional (ABBA) A to B Papp) | Papp B→A ([3]; B to A, n = 1 or average (n = 2), read-out: Caco2 Bidirectional (ABBA) B to A Papp) | efflux ratio ([3]; read-out: Caco2 Bidirectional (ABBA) Efflux Ratio)
CCOC1(c2ccc3nccc(C(=O)NCC(=O)N4CSC[C@H]4C#N)c3c2)CC1 [Example 76, (R)—N-(2-(4-Cyanothiazolidin-3-yl)-2-oxoethyl)-6-(1-ethoxycyclopropyl)quinoline-4-carboxamide] | 34 μL/min/1E6 | 580 nM | 1.3 nM | 900 µM (≈ 369 µg/mL) | 2 nM | 140 µL/min/mg | – | – | –
Cc1ccc(C2(c3ccc4nccc(C(=O)NCC(=O)N5CSC[C@H]5C#N)c4c3)CC2)cn1 [Example 43, (R)—N-(2-(4-Cyanothiazolidin-3-yl)-2-oxoethyl)-6-(1-(6-methylpyridin-3-yl)cyclopropyl)quinoline-4-carboxamide] | 78 μL/min/1E6 | 370 nM | 0.094 nM | 60 µM (≈ 27.5 µg/mL) | 0.39 nM | 100 µL/min/mg | – | – | –
N#C[C@@H]1CSCN1C(=O)CNC(=O)c1ccnc2ccc(C3CCOC3)cc12 (mixture of isomers) [Example 67, N-(2-((R)-4-Cyanothiazolidin-3-yl)-2-oxoethyl)-6-((RS)-tetrahydrofuran-3-yl)quinoline-4-carboxamide] | 11 μL/min/1E6 | 87 nM | 0.3 nM | 880 µM (≈ 349 µg/mL) | 0.11 nM | 16 µL/min/mg | – | – | –
COCCCOc1ccc(-c2ccc3nccc(C(=O)NCC(=O)N4CSC[C@H]4C#N)c3c2)cc1 [Example 72, (R)—N-(2-(4-Cyanothiazolidin-3-yl)-2-oxoethyl)-6-(4-(3-methoxy-propoxy)phenyl)quinoline-4-carboxamide] | 18 μL/min/1E6 | 540 nM | 0.2 nM | 14 µM (≈ 6.87 µg/mL) | 0.013 nM | 63 µL/min/mg | – | – | –
N#C[C@@H]1CSCN1C(=O)CNC(=O)c1ccnc2ccc(C3(C#N)CCOCC3)cc12 [Example 59, (R)-6-(4-Cyanotetrahydro-2H-pyran-4-yl)-N-(2-(4-cyanothiazolidin-3-yl)-2-oxoethyl)quinoline-4-carboxamide] | 20 μL/min/1E6 | 430 nM | – | 480 µM (≈ 209 µg/mL) | – | 30 µL/min/mg | 0.24 ×10⁻⁶ cm/s | 21 ×10⁻⁶ cm/s | 90
N#C[C@@H]1CSCN1C(=O)CNC(=O)c1ccnc2ccc(CF)cc12 [Example 29, (R)—N-(2-(4-cyanothiazolidin-3-yl)-2-oxoethyl)-6-(fluoromethyl)-quinoline-4-carboxamide] | 12 μL/min/1E6 | 32 nM | 0.52 nM | > 1000 µM | 1.4 nM | 9.8 µL/min/mg | – | – | –
N#C[C@@H]1CSCN1C(=O)CNC(=O)c1ccnc2ccc(-c3ccoc3)cc12 [Example 14, (R)—N-(2-(4-Cyanothiazolidin-3-yl)-2-oxoethyl)-6-(furan-3-yl)quinoline-4-carboxamide] | 11 μL/min/1E6 | 8.4 nM | 0.079 nM | 420 µM (≈ 165 µg/mL) | 0.046 nM | 25 µL/min/mg | – | – | –
Cc1cc(Cc2ccc3nccc(C(=O)NCC(=O)N4CSC[C@H]4C#N)c3c2)no1 [Example 42, (R)—N-(2-(4-Cyanothiazolidin-3-yl)-2-oxoethyl)-6-((5-methylisoxazol-3-yl)methyl)quinoline-4-carboxamide] | 23 μL/min/1E6 | 180 nM | 0.27 nM | 190 µM (≈ 80.1 µg/mL) | 0.2 nM | 12 µL/min/mg | – | – | –
N#C[C@@H]1CSCN1C(=O)CNC(=O)c1ccnc2ccc(C(F)F)cc12 [Example 71, (R)—N-(2-(4-Cyanothiazolidin-3-yl)-2-oxoethyl)-6-(difluoromethyl)-quinoline-4-carboxamide] | 8.7 μL/min/1E6 | 15 nM | 0.43 nM | > 1000 µM | 0.4 nM | 16 µL/min/mg | – | – | –
Cc1cc(Cc2ccc3nccc(C(=O)NCC(=O)N4CSC[C@H]4C#N)c3c2)n(C)n1 [Example 40, (R)—N-(2-(4-Cyanothiazolidin-3-yl)-2-oxoethyl)-6-((1,3-dimethyl-1H-pyrazol-5-yl)methyl)quinoline-4-carboxamide] | 21 μL/min/1E6 | 600 nM | 0.25 nM | > 1000 µM | 0.13 nM | 29 µL/min/mg | – | – | –
